In PMC10201506 (Signal Transduction and Targeted Therapy, 2023):
pEC50: −log10 of the molar value.

Tests used:
SARS-CoV-2 Delta variant [1] = assay: microbe, parasite or virus in culture; type: cell-based; conditions: Severe acute respiratory syndrome coronavirus 2, Vero C1008, 24 h, read-out: EC50 Delta variant replication
[2] = test system: SARS-CoV-2 Omicron BA.1 variant; assay: microbe, parasite or virus in culture; type: cell-based; conditions: Severe acute respiratory syndrome coronavirus 2, Vero C1008, 24 h, read-out: EC50 Omicron BA.1 variant replication
SARS-CoV-2 delta variant [3] = test system: SARS-CoV-2 delta variant; parameters: species or system K18-hACE2 mice; conditions: mouse, in vivo

O=C(c1cc(=O)[nH]c2ccccc12)N1CCN(c2ccc(Cl)c(Cl)c2)CC1CN1CCOCC1 (centres unmarked) [JZD-07, 4-(4-(3,4-Dichlorophenyl)-2-(morpholinomethyl)piperazine-1-carbonyl)quinolin-2(1H)-one]
pEC50 (SARS-CoV-2 Delta variant [1]): 5.14 | pEC50 [2]: 5.22 | immunohistochemistry staining of viral nucleocapsid protein in lungs (SARS-CoV-2 delta variant [3]): suppressed viral titer in mice lungs | reduction of viral copy loads of the lung vs vehicle (SARS-CoV-2 delta variant [3]): ~1.0 log | reduction of viral titers of the lung vs vehicle (SARS-CoV-2 delta variant [3]): 2.0 log
